# What was measured:
# [1] = test system: Enterococcus faecalis; assay: Antibacterial activity against Enterococcus faecalis ATCC 29212; assay type: functional
# [2] = test system: Escherichia coli; assay: Antibacterial activity against Escherichia coli ATCC 25922; assay type: functional
# [3] = test system: Pseudomonas aeruginosa; assay: Antibacterial activity against Pseudomonas aeruginosa ATCC 27853; assay type: functional
# [4] = test system: Staphylococcus aureus; assay: Antibacterial activity against Staphylococcus aureus ATCC 29213; assay type: functional
# [5] = Inhibition of Escherichia coli MurE after 15 mins by malachite green assay
# [6] = test system: Escherichia coli; assay: Inhibition of Escherichia coli MurD assessed as residual activity at 100 uM after 15 mins by malachite green assay
# [7] = test system: Escherichia coli; assay: Inhibition of Escherichia coli MurD assessed as residual activity at 250 uM after 15 mins by malachite green assay
# [8] = test system: Escherichia coli; assay: Inhibition of Escherichia coli MurE assessed as residual activity at 250 uM after 15 mins by malachite green assay
# [9] = Inhibition of Escherichia coli MurD
# [10] = test system: Escherichia coli; assay: Inhibition of Escherichia coli MurE assessed as residual activity at 100 uM after 15 mins by malachite green assay
# [11] = Inhibition of MurE assessed as residual activity
# [12] = Inhibition of Escherichia coli MurD after 15 mins by malachite green assay
# [13] = Inhibition of MurD
structure (smiles),measurement,setting,value
O=C(O)CC[C@@H](NC(=O)c1ccc(/C=C2\SC(=S)NC2=O)cc1)C(=O)O,MBC,[1],> 128 µg/mL
same,MIC,[1],> 128 µg/mL
same,MBC,[2],> 128 µg/mL
same,MIC,[2],> 128 µg/mL
same,MBC,[3],> 128 µg/mL
same,MIC,[3],> 128 µg/mL
same,MBC,[4],> 128 µg/mL
same,MIC,[4],> 128 µg/mL
Cc1cc(/C=C2/C(=O)NC(=S)N(c3ccc(Cl)cc3)C2=O)c(C)n1-c1cc(C(=O)O)cc(C(=O)O)c1,IC50,[5],97 µM
same,Activity,[6],69%
COC(=O)CC[C@@H](NC(=O)c1ccc(/C=C2\SC(=S)NC2=O)cc1)C(=O)OC,MBC,[1],> 128 µg/mL
same,MIC,[1],> 128 µg/mL
same,MBC,[2],> 128 µg/mL
same,MIC,[2],> 128 µg/mL
same,MBC,[3],> 128 µg/mL
same,MIC,[3],> 128 µg/mL
same,MBC,[4],> 128 µg/mL
same,MIC,[4],> 128 µg/mL
O=C(O)c1cc(C(=O)O)cc(-c2ccc(/C=C3/SC(=S)N(NC(=O)c4cccs4)C3=O)o2)c1,Activity,[7],82%
same,Activity,[8],81%
CCCCCOc1ccc2cc(S(=O)(=O)N[C@H](CCC(=O)O)C(=O)O)ccc2c1,IC50,[9],239 µM
N#Cc1ccc(COc2ccc3cc(S(=O)(=O)N[C@H](CCC(=O)O)C(=O)O)ccc3c2)cc1,IC50,[9],134 µM
COc1ccc(-c2ccc(/C=C3\SC(=S)N(C(CCC(=O)O)C(=O)O)C3=O)o2)c([N+](=O)[O-])c1 (stereo not drawn),Activity,[6],87%
same,Activity,[10],70%
same,Activity,[8],70%
CCOC(=O)COc1ccc2cc(S(=O)(=O)N[C@H](CCC(=O)O)C(=O)O)ccc2c1,IC50,[9],192 µM
C[C@@H](NS(=O)(=O)Cc1ccc([N+](=O)[O-])cc1)C(=O)N[C@H](C)P(=O)(O)C[C@@H](CC(=O)O)C(=O)O,IC50,[9],78 µM
same,Activity,[11],8%
CCOc1ccc2[nH]c(SCC(=O)Nc3cc(C(=O)O)cc(C(=O)O)c3)nc2c1,Activity,[6],89%
same,Activity,[10],95%
O=C(O)c1cc(C(=O)O)cc(-c2ccc(/C=C3/SC(=S)N(c4ccc5c(c4)OCO5)C3=O)o2)c1,IC50,[5],32 µM
same,IC50,[12],270 µM
CCOc1ccc2nc(SCC(=O)Nc3cc(C(=O)O)cc(C(=O)O)c3)sc2c1,Activity,[6],98%
same,Activity,[10],84%
CCc1ccccc1N1C(=O)/C(=C\c2cc(C)n(-c3cc(C(=O)O)cc(C(=O)O)c3)c2C)C(=O)NC1=S,Activity,[6],92%
same,Activity,[10],55%
CCCCOc1ccc2cc(S(=O)(=O)N[C@H](CCC(=O)O)C(=O)O)ccc2c1,IC50,[13],276 µM
Cc1cc(/C=C2/C(=O)NC(=S)N(c3cccc(Cl)c3Cl)C2=O)c(C)n1-c1cc(C(=O)O)cc(C(=O)O)c1,IC50,[5],79 µM
same,Activity,[6],83%
Cc1cc(/C=C2/C(=O)NC(=S)N(c3cccc(Cl)c3)C2=O)c(C)n1-c1cc(C(=O)O)cc(C(=O)O)c1,IC50,[5],104 µM
same,Activity,[6],90%
Cc1cc(C=C2C(=O)NC(=S)NC2=O)c(C)n1-c1cc(C(=O)O)cc(C(=O)O)c1,Activity,[6],99%
same,Activity,[10],76%
CCCCOc1ccc2cc(S(=O)(=O)N[C@@H](CCC(=O)O)C(=O)O)ccc2c1,IC50,[13],710 µM
C[C@@H](NS(=O)(=O)Cc1ccc([N+](=O)[O-])cc1)C(=O)N[C@H](C)P(=O)(O)C[C@H](CCC(=O)O)C(=O)O,IC50,[9],78 µM
C[C@@H](NC(=O)/C=C/c1ccc2c(c1)OCO2)P(=O)(O)C[C@H](CCC(=O)O)C(=O)O,IC50,[9],95 µM
COc1cccc(/C=C2\SC(=S)N(C(CCC(=O)O)C(=O)O)C2=O)c1 (stereo not drawn),Activity,[6],98%
same,Activity,[10],89%
O=C(O)CCC(C(=O)O)N1C(=O)/C(=C/c2ccc(-c3ccc([N+](=O)[O-])cc3)o2)SC1=S (stereo not drawn),IC50,[5],61 µM
same,Activity,[6],74%
Cc1cc(/C=C2/C(=O)NC(=S)N(c3ccccc3)C2=O)c(C)n1-c1cc(C(=O)O)cc(C(=O)O)c1,IC50,[5],89 µM
O=C(CSc1nc2ccccc2s1)Nc1cc(C(=O)O)cc(C(=O)O)c1,Activity,[6],97%
same,Activity,[10],94%
O=C(O)CC[C@H](NS(=O)(=O)c1ccc2cc(O)ccc2c1)C(=O)O,IC50,[9],90 µM
O=C(O)CC[C@@H](NC(=O)c1ccc(CNc2ccc(/C=C3\SC(=S)NC3=O)cc2)cc1)C(=O)O,MBC,[1],> 128 µg/mL
same,MIC,[1],> 128 µg/mL
same,MBC,[2],> 128 µg/mL
same,MIC,[2],> 128 µg/mL
same,MBC,[3],> 128 µg/mL
same,MIC,[3],> 128 µg/mL
same,MBC,[4],> 128 µg/mL
same,MIC,[4],> 128 µg/mL
O=C(O)CC[C@@H](NS(=O)(=O)c1ccc2cc(OCCCc3ccccc3)ccc2c1)C(=O)O,IC50,[9],180 µM

# Reference: ChEMBL document CHEMBL1151879, “Discovery of novel benzene 1,3-dicarboxylic acid inhibitors of bacterial MurD and MurE ligases by structure-based virtual screening approach” (Bioorg Med Chem Lett, 2009)
